Values of other authors in article PMC8674134, “Safety and efficacy of avapritinib in advanced systemic mastocytosis: the phase 1 EXPLORER trial” (Nature Medicine, 2021).

Tests used:
mast cell leukemia (MCL) = tested on: mast cell leukemia (MCL); set-up: method as in PMID 27355533; settings: patients with MCL; 95% CI, 6–54%; cited from earlier work
[1] = tested on: advanced systemic mastocytosis (AdvSM); set-up: method as in PMID 32392175; settings: post hoc exploratory analysis of pivotal phase 2 study; cited from earlier work
KIT D816V = tested on: KIT D816V; set-up: method as in PMID 16779792, PMID 15166033, PMID 19193436; settings: cited from earlier work

Row | Compound | 24-month OS (mast cell leukemia (MCL)) | CR rate by IWG-MRT-ECNM criteria [1] | Responses by IWG-MRT-ECNM criteria, patients [1] | Activity against KIT D816V (KIT D816V)
1 | CO[C@@H]1[C@H](N(C)C(=O)c2ccccc2)C[C@H]2O[C@]1(C)n1c3ccccc3c3c4c(c5c6ccccc6n2c5c31)C(=O)NC4 [midostaurin] | 26% | 2% | 28% | 
2 | Cc1ccc(NC(=O)c2ccc(CN3CCN(C)CC3)cc2)cc1Nc1nccc(-c2cccnc2)n1 [Imatinib] |  |  |  | lacks activity
